Reference: patent US20230265151A1, “GIP/GLP1 CO-AGONIST COMPOUNDS” (priority 2020, published 2023)
Read-outs that look alike come from different tables or passages of the source.

Key:
Format in all cases: cell-based
hGIPR = molecular target: T1, hGIPR (Homo sapiens, UniProt P48546); test: Functional cAMP formation (HTRF) in HEK-293 clonal cells expressing hGIPR, 0.1% bovine casein, without or with 1.0% human serum albumin; conditions: for EC50: geometric mean; for Emax: read-out: hGIPR Emax, % ± SEM
T1 construct: expressed in transfected cells
T1 sequence (P48546 22-466): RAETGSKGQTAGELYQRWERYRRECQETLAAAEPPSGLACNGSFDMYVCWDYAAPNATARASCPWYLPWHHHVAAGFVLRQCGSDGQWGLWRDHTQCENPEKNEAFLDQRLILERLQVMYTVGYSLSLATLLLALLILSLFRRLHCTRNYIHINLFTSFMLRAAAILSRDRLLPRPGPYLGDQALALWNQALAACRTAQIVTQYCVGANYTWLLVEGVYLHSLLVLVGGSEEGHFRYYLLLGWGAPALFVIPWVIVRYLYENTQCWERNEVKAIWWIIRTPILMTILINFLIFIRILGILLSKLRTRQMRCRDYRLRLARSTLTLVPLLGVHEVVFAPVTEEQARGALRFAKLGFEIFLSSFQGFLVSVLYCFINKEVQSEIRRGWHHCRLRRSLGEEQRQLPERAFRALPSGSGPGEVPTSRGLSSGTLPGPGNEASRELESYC
In short: (§1)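 Cells were stimulated with peptide for 30 min at 37° C, then lysed in buffer carrying cAMP-d2 and anti-cAMP Eu3+-cryptate for a competitive HTRF read after at least 60 min at room temperature. The 665/620 nm ratio was converted to nM cAMP against a standard curve.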

hGCGR = molecular target: T2, hGCGR (Homo sapiens, UniProt P47871); test: Functional cAMP formation (HTRF) in HEK-293 clonal cells expressing hGCGR, 0.1% bovine casein, without or with 1.0% human serum albumin; conditions: geometric mean
T2 construct: expressed in transfected cells
T2 sequence (P47871 26-477): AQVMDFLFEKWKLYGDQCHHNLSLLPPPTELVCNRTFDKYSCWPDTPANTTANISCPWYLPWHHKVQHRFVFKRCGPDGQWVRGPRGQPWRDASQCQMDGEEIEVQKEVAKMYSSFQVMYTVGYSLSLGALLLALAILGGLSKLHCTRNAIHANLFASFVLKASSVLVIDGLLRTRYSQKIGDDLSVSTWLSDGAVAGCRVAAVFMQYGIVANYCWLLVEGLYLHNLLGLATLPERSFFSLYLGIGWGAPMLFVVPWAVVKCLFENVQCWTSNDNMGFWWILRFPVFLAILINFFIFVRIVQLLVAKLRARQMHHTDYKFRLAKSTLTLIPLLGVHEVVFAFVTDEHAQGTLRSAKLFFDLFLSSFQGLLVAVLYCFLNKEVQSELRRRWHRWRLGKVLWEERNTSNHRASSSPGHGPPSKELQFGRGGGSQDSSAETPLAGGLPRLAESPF
In short: as §1

hGLP-1R = hGLP-1R (Homo sapiens, UniProt P43220); test: Functional cAMP formation (HTRF) in HEK-293 clonal cells expressing hGLP-1R, 0.1% bovine casein, without or with 1.0% human serum albumin; set-up: expressed in transfected cells; conditions: for EC50: geometric mean
hGLP-1R, sequence (P43220 24-463): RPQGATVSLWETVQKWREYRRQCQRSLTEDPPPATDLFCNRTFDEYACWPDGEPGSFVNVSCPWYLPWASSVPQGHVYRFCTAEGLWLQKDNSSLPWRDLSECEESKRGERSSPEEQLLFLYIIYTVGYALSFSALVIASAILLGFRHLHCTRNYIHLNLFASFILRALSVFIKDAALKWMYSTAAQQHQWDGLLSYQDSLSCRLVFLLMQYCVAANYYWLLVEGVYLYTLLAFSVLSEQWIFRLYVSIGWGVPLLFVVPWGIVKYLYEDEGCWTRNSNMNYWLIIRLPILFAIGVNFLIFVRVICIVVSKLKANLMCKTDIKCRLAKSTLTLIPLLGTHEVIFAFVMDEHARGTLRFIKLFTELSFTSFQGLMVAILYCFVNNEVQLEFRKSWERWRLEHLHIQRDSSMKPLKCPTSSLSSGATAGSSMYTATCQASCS
In short: as §1

[1] = HEK293, 0.1% bovine casein and 1.0% human serum albumin, 37° C., percent of maximal response to GIP(1-42)NH2
[2] = 0.1% bovine casein and 1.0% human serum albumin, 37° C., read-out: hGCGR EC50, nM (SEM, n)
[3] = 0.1% bovine casein and 1.0% human serum albumin, 37° C., read-out: hGLP-1R EC50, nM (SEM, n)
[4] = HEK293, 0.1% bovine casein and 1.0% human serum albumin, 37° C., percent of maximal response to GLP-1(7-36)NH2, read-out: hGLP-1R Emax, % ± SEM
[5] = HEK293, percent of maximal response to GIP(1-42)NH2, 37° C., 0.1% bovine casein, arithmetic mean
[6] = cAMP, incubated at 37° C., 0.1% bovine casein (no human serum albumin), read-out: hGCGR EC50, nM (SEM, n)

Row | SMILES | EC50 (hGIPR; hGIPR EC50, nM (SEM, n), cAMP, 37° C., 0.1% bovine casein (no human serum albumin)) | EC50 (hGCGR; hGCGR EC50, nM (SEM, n), 0.1% bovine casein and 1.0% human serum albumin, 37° C.) | EC50 (hGCGR; hGCGR EC50, nM (SEM, n), cAMP, 37° C., 0.1% bovine casein (no human serum albumin)) | Emax (hGLP-1R; HEK293, read-out: hGLP-1R Emax, % ± SEM, 0.1% bovine casein and 1.0% human serum albumin, 37° C., percent of maximal response to GLP-1(7-36)NH2) | EC50 (hGLP-1R; hGLP-1R EC50, nM (SEM, n), cAMP, 37° C., 0.1% bovine casein (no human serum albumin)) | Emax (hGIPR; [1]) | Emax (hGIPR; HEK293, cAMP, 37° C., 0.1% bovine casein, percent of maximal response to GIP(1-42)NH2, arithmetic mean) | EC50 (hGCGR; [2]) | EC50 (hGCGR; cAMP, 37° C., 0.1% bovine casein (no human serum albumin), read-out: hGCGR EC50, nM (SEM, n)) | EC50 (hGLP-1R; [3]) | Emax (hGLP-1R; [4]) | Emax (hGLP-1R; HEK293, cAMP, 37° C., 0.1% bovine casein, percent of maximal response to GLP-1(7-36)NH2, arithmetic mean, read-out: hGLP-1R Emax, % ± SEM) | Emax (hGIPR; [5]) | EC50 (hGIPR; cAMP, incubated at 37° C., 0.1% bovine casein (no human serum albumin), read-out: hGIPR EC50, nM (SEM, n)) | EC50 (hGCGR; [6]) | Emax (hGLP-1R; HEK293, percent of maximal response to GLP-1(7-36)NH2, 37° C., 0.1% bovine casein, arithmetic mean, read-out: hGLP-1R Emax, % ± SEM) | EC50 (hGIPR; 0.1% bovine casein and 1.0% human serum albumin, 37° C., read-out: hGIPR EC50, nM (SEM, n)) | EC50 (hGLP-1R; cAMP, incubated at 37° C., 0.1% bovine casein (no human serum albumin), read-out: hGLP-1R EC50, nM (SEM, n))
1 | CC[C@H](C)[C@H](NC(=O)[C@H](CCCN)NC(=O)[C@H](CC(=O)O)NC(=O)[C@H](CC(C)C)NC(=O)[C@](C)(CC(C)C)NC(=O)[C@@H](NC(=O)C(C)(C)NC(=O)[C@@H](NC(=O)[C@H](CC(=O)O)NC(=O)[C@H](CO)NC(=O)[C@@H](NC(=O)[C@](C)(Cc1ccccc1F)NC(=O)[C@@H](NC(=O)CNC(=O)[C@H](CCC(=O)O)NC(=O)C(C)(C)NC(=O)[C@@H](N)Cc1ccc(O)cc1)[C@@H](C)O)[C@@H](C)O)C(C)C)[C@@H](C)CC)C(=O)N[C@@H](C)C(=O)N[C@@H](CCC(N)=O)C(=O)NC(C)(C)C(=O)N[C@@H](CCC(=O)O)C(=O)N[C@@H](Cc1ccccc1)C(=O)N[C@H](C(=O)N[C@@H](CCCCNC(=O)COCCOCCNC(=O)COCCOCCNC(=O)CC[C@H](NC(=O)CCCCCCCCCCOc1ccc(C(=O)O)cc1)C(=O)O)C(=O)N[C@@](C)(Cc1ccc(O)cc1)C(=O)N[C@@H](CC(C)C)C(=O)N[C@H](C(=O)N[C@@H](CCCCNC(=O)COCCOCCNC(=O)COCCOCCNC(=O)CC[C@H](NC(=O)CCCCCCCCCCOc1ccc(C(=O)O)cc1)C(=O)O)C(=O)NCC(=O)NCC(=O)N1CCC[C@H]1C(=O)N[C@@H](CO)C(=O)N[C@@H](CO)C(=O)NCC(=O)N[C@@H](C)C(=O)N1CCC[C@H]1C(=O)N1CCC[C@H]1C(=O)N1CCC[C@H]1C(=O)N[C@@H](CO)C(N)=O)[C@@H](C)CC)[C@@H](C)CC [Example 313] | 0.00781 nM | > 9950 nM | > 9950 nM | 95% | 1.13 nM |  |  |  |  |  |  |  |  |  |  |  |  | 
2 | CC[C@H](C)[C@H](NC(=O)[C@H](CCCN)NC(=O)[C@H](CC(=O)O)NC(=O)[C@H](CC(C)C)NC(=O)[C@](C)(CC(C)C)NC(=O)[C@@H](NC(=O)[C@H](CO)NC(=O)[C@H](CCc1ccc(O)cc1)NC(=O)[C@H](CC(=O)O)NC(=O)[C@H](CO)NC(=O)[C@@H](NC(=O)[C@](C)(Cc1ccccc1F)NC(=O)[C@@H](NC(=O)CNC(=O)[C@H](CCC(=O)O)NC(=O)C(C)(C)NC(=O)[C@@H](N)Cc1ccc(O)cc1)[C@@H](C)O)[C@@H](C)O)[C@@H](C)CC)C(=O)N[C@@H](C)C(=O)N[C@@H](CCC(N)=O)C(=O)NC(C)(C)C(=O)N[C@@H](CCC(=O)O)C(=O)N[C@@H](Cc1ccccc1)C(=O)N[C@H](C(=O)N[C@@H](CCCCNC(=O)COCCOCCNC(=O)COCCOCCNC(=O)CC[C@H](NC(=O)CCCCCCCCCCCCC(=O)O)C(=O)O)C(=O)N[C@@](C)(Cc1ccc(O)cc1)C(=O)N[C@@H](CC(C)C)C(=O)N[C@H](C(=O)N[C@@H](CCCCNC(=O)COCCOCCNC(=O)COCCOCCNC(=O)CC[C@H](NC(=O)CCCCCCCCCCCCC(=O)O)C(=O)O)C(=O)NCC(=O)NCC(=O)N1CCC[C@H]1C(=O)N[C@@H](CO)C(=O)N[C@@H](CO)C(=O)NCC(=O)N[C@@H](C)C(=O)N1CCC[C@H]1C(=O)N1CCC[C@H]1C(=O)N1CCC[C@H]1C(=O)N[C@@H](CO)C(N)=O)[C@@H](C)CC)[C@@H](C)CC [Example 270] |  |  |  |  |  | 80.9% | 91.7% | > 9950 nM | > 9950 nM | 32.6 nM | 111% | 97% |  |  |  |  |  | 
3 | CC[C@H](C)[C@H](NC(=O)[C@H](CC(C)C)NC(=O)[C@](C)(Cc1ccc(O)cc1)NC(=O)[C@@H](CCC(=O)O)NC(=O)[C@@H](NC(=O)[C@](C)(Cc1ccccc1)NC(=O)[C@H](CCC(=O)O)NC(=O)C(C)(C)NC(=O)[C@H](CCC(N)=O)NC(=O)[C@H](C)NC(=O)[C@H](CCCCNC(=O)COCCOCCNC(=O)COCCOCCNC(=O)CC[C@H](NC(=O)CCCCCCCCCCCCC(=O)O)C(=O)O)NC(=O)[C@H](CCCN)NC(=O)[C@H](CC(=O)O)NC(=O)[C@H](CC(C)C)NC(=O)[C@](C)(CC(C)C)NC(=O)[C@@H](NC(=O)[C@H](CO)NC(=O)[C@H](Cc1ccncc1)NC(=O)[C@H](CC(=O)O)NC(=O)[C@H](CO)NC(=O)[C@@H](NC(=O)[C@](C)(Cc1ccccc1)NC(=O)[C@@H](NC(=O)CNC(=O)[C@H](CCC(=O)O)NC(=O)C(C)(C)NC(=O)[C@@H](N)Cc1ccc(O)cc1)[C@@H](C)O)[C@@H](C)O)[C@@H](C)CC)[C@@H](C)CC)C(=O)N[C@@H](CCC(=O)O)C(=O)NCC(=O)NCC(=O)N[C@@H](CCCCNC(=O)COCCOCCNC(=O)COCCOCCNC(=O)CC[C@H](NC(=O)CCCCCCCCCCCCC(=O)O)C(=O)O)C(=O)N[C@@H](CO)C(=O)N[C@@H](CO)C(=O)NCC(=O)N[C@@H](C)C(=O)N1CCC[C@H]1C(=O)N1CCC[C@H]1C(=O)N1CCC[C@H]1C(=O)N[C@@H](CO)C(N)=O [Example 47] |  |  |  |  |  | 85.6% |  | > 9950 nM |  | 1670 nM | 134% |  | 89.8 ± 1.2% | 0.0138 nM | > 9950 nM | 87.1 ± 14.1% |  | 
4 | CCCCCCCCCCCC(=O)N[C@@H](CCC(=O)NCCOCCOCC(=O)NCCOCCOCC(=O)NCCCC[C@H](NC(=O)CNC(=O)CNC(=O)[C@H](CCC(=O)O)NC(=O)[C@@H](NC(=O)[C@H](CC(C)C)NC(=O)[C@](C)(Cc1ccc(O)cc1)NC(=O)[C@@H](CCC(=O)O)NC(=O)[C@@H](NC(=O)[C@H](Cc1ccccc1)NC(=O)[C@H](CCC(=O)O)NC(=O)C(C)(C)NC(=O)[C@H](CCC(N)=O)NC(=O)[C@H](C)NC(=O)[C@H](CCCCNC(=O)COCCOCCNC(=O)COCCOCCNC(=O)CC[C@H](NC(=O)CCCCCCCCCCC)C(=O)O)NC(=O)[C@H](CCCN)NC(=O)[C@H](CC(=O)O)NC(=O)[C@H](CC(C)C)NC(=O)[C@](C)(CC(C)C)NC(=O)[C@@H](NC(=O)[C@H](CO)NC(=O)[C@H](Cc1ccncc1)NC(=O)[C@H](CC(=O)O)NC(=O)[C@H](CO)NC(=O)[C@@H](NC(=O)[C@](C)(Cc1ccccc1)NC(=O)[C@@H](NC(=O)CNC(=O)[C@H](CCC(=O)O)NC(=O)C(C)(C)NC(=O)[C@@H](N)Cc1ccc(O)cc1)[C@@H](C)O)[C@@H](C)O)[C@@H](C)CC)[C@@H](C)CC)[C@@H](C)CC)C(=O)N[C@@H](CO)C(=O)N[C@@H](CO)C(=O)NCC(=O)N[C@@H](C)C(=O)N1CCC[C@H]1C(=O)N1CCC[C@H]1C(=O)N1CCC[C@H]1C(=O)N[C@@H](CO)C(N)=O)C(=O)O [Example 172] |  |  |  |  |  | 80.1 ± 2.06% |  | > 9950 nM |  | 7.7 nM | 112 ± 10.3% |  | 89.9 ± 1.05% |  | > 9950 nM |  | 0.385 nM | 0.141 nM
